# Laboratory results taken from US10076522B2, “Systems and methods for treating bacterial infection” (priority 2016, dated 2018).
# “Also recorded” adds a separate entry of the source.
# How the values were obtained:
# [1] = 13-week toxicology study in the marmoset, AUC at NOAEL; details: monkey, in vivo
# [2] = test system: cSSSIs; assay: Phase III ASSIST trials, efficacy in cSSSI; format: in vivo, human; details: 0.8 mg/kg over 0.5 hr q12h IV
# Source text: Without wishing to be bound by a particular theory, one observed disadvantage of the weight-based dosing in the previous Phase III studies is that the post-antibiotic effect achieved by the weight-based doses was not enough to sustain the T>MIC between doses. Sufficient efficacy might be achieved by increasing the amount of iclaprim administered to the subject. However, as discussed above, simply increasing the weight-based dose of iclaprim risks causing QTc prolongation.
# [3] = molecular target: SCNSA sodium channel (Homo sapiens, UniProt Q14524); assay: Sodium channel inhibition
# [4] = test system: isolated rabbit Purkinje fibers
# [5] = human, in vivo
# [6] = clinical; details: human, in vivo, iv, 0.8 mg/kg, mean Cmax
# Method: For example, the PK profile of 0.8 mg/kg iclaprim administered by IV was investigated in 8 subjects with mild to moderate obesity (body mass index or “BMI” 30-40) and in 8 subjects with severe obesity (BMI>40). […] Linear regression analysis indicated a strong linear relationship between AUC (and Cmax) and BMI. Thus it was clear that the body composition of the subject affected the pharmacokinetics of IV administered iclaprim, with a greater percentage of body fat causing an increase in AUC and Cmax. […] Thus there is a risk of overdosing subjects with moderate hepatic impairment, which can be mitigated by reducing the IV iclaprim dose by about 50%.
# [7] = both, human, in vivo
# Method: A second single-dose ECG study was conducted on healthy human volunteers using weight-based doses of 0.4 mg/kg and 0.8 mg/kg iclaprim base infused over 30 minutes and 1.6 mg/kg infused over 60 minutes.
# [8] = 13-week toxicology study in the rat, AUC at NOAEL; details: in vivo
# [9] = test system: acute bacterial skin and skin structure infections (ABSSSIs) suspected or confirmed to be due to Gram-positive pathogens; assay: Phase III REVIVE-1 study, efficacy of fixed dose iclaprim versus vancomycin; format: in vivo, human; details: ITT; for non-inferiority (10% margin) compared to vancomycin: 80 mg over 2 hr q12h IV
# Method: Subjects were evaluated daily up to ETP, then every 48 to 72 hours through the end of treatment. If the last dose of study drug fell on a day when an evaluation was not planned, an additional evaluation visit was performed on that day (i.e., all EOT evaluations were performed on the last day [+2 days] of drug dose).
# The infusion time and duration of treatment for both groups was 2 hours and 5 days (minimum duration) to 14 days (maximum duration), respectively.
# The primary endpoint for clinical response (defined as the reduction in lesion size ≥20% compared to baseline) was evaluated in all randomized subjects at ETP (48 to 72 hours post-first dose). […] In addition, clinical outcome was evaluated by the investigator at EOT and TOC (7 to 14 days post EOT). The assessments of clinical outcome was categorized as cure, failure, or indeterminate.
# Iclaprim was administered at a dose of 80 mg in 500 mL normal saline, infused over 2 hours q12h (every 12 hours) for 5 to 14 days. For subjects with moderate hepatic impairment (Child-Pugh Class B), iclaprim was administered at a dose of 40 mg in 500 mL normal saline, infused over 2 hours q12h for 5 to 14 days.
# Dosing interval was every q12 h, q24 h, q48 h, or dosed by daily level based on creatinine clearance.
# The primary efficacy endpoint was the proportion of randomized subjects who achieved an early clinical response (defined as reduction in the lesion size ≥20% compared to baseline) at 48 to 72 hours (ETP) and was evaluated among all randomized subjects (ITT population).
# The NI bound were 10%. […] Equivalently, if the lower bound of the two-sided 95% CI for P1-P2 was greater than −0.100 based on the Z test with unpooled variance estimate, NI was concluded.
# [10] = test system: S. aureus; assay: MIC90 in worldwide surveillance studies; format: cell-based; details: Staphylococcus aureus
# Source text: The ASSIST-1 and ASSIST-2 studies used sparse sampling with a population PK analysis. The post-hoc estimates of the individual subject PK parameters were used to simulate the plasma iclaprim concentration-time profiles for each subject and, from those profiles, the corresponding values for Cmaxss, AUC0-24hss, AUC/MIC, and T>MIC.
# [11] = Single-dose ECG study in healthy human volunteers (1.6 and 3.2 mg/kg over 30 minutes); format: in vivo
# Method: Based on this, a single-dose ECG-study was conducted in healthy human volunteers, where 1.6 mg/kg and 3.2 mg/kg iclaprim was infused over 30 minutes. […] Maximal increases coincided with Cmax levels and were rapidly reversible. Weight-based dosing with 1.6 mg/kg was thus assessed as acceptable for clinical purposes, whereas weight-based dosing at 3.2 mg/kg was associated with relevant QTc prolongations (>60 msec) and nonspecific T-wave alterations, and was not used for further clinical studies.
# [12] = in vivo
# [13] = molecular target: T1, hERG-mediated potassium current (Homo sapiens, UniProt Q12809); assay: Inhibition of hERG-mediated potassium current in transfected CHO cells; format: cell-based; details: reversible inhibition
# T1 construct: expressed in transfected cells; host or cells: CHO (Chinese Hamster Ovary) cells
# [14] = Exposure to iclaprim in Phase I studies; details: human, plasma, intravenous, HMR 01-014, Multiple Dose Q12H × 9 days, arithmetic mean
# [15] = clinical; details: human, in vivo
# [16] = 150 mg, 150 mg/EtOH & NS (20 min)
# T1 sequence (Q12809 whole entry): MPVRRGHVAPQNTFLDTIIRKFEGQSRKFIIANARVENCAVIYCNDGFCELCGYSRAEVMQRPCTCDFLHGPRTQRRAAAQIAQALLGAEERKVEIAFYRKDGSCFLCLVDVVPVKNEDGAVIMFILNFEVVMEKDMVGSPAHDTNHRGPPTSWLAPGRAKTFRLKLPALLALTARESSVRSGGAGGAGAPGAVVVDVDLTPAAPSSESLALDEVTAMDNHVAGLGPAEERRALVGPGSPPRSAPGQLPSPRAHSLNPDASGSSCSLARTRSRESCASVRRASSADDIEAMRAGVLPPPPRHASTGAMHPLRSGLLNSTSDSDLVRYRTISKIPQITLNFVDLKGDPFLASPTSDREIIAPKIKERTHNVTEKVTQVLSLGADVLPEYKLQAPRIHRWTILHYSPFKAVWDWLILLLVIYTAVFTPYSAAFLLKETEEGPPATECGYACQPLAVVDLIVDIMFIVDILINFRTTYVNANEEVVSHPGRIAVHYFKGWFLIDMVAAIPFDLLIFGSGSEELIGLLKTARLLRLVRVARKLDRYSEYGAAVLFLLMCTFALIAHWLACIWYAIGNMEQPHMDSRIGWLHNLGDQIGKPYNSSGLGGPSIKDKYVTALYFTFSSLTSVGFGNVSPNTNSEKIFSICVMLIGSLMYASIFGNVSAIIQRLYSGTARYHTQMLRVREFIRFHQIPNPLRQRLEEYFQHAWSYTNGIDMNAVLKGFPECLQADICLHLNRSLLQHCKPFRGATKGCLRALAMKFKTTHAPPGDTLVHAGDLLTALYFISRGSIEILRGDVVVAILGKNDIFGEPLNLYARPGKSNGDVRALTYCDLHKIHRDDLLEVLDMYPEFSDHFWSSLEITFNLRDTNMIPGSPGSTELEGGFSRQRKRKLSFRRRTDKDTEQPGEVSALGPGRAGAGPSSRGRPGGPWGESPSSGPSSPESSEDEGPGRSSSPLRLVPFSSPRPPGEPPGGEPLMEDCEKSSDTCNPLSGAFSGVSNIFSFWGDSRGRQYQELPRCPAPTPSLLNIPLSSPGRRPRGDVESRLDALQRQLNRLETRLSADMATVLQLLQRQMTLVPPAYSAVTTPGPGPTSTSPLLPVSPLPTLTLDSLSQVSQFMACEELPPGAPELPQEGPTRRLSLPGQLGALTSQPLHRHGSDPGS
# Chain of SCNSA sodium channel (Q14524 whole entry): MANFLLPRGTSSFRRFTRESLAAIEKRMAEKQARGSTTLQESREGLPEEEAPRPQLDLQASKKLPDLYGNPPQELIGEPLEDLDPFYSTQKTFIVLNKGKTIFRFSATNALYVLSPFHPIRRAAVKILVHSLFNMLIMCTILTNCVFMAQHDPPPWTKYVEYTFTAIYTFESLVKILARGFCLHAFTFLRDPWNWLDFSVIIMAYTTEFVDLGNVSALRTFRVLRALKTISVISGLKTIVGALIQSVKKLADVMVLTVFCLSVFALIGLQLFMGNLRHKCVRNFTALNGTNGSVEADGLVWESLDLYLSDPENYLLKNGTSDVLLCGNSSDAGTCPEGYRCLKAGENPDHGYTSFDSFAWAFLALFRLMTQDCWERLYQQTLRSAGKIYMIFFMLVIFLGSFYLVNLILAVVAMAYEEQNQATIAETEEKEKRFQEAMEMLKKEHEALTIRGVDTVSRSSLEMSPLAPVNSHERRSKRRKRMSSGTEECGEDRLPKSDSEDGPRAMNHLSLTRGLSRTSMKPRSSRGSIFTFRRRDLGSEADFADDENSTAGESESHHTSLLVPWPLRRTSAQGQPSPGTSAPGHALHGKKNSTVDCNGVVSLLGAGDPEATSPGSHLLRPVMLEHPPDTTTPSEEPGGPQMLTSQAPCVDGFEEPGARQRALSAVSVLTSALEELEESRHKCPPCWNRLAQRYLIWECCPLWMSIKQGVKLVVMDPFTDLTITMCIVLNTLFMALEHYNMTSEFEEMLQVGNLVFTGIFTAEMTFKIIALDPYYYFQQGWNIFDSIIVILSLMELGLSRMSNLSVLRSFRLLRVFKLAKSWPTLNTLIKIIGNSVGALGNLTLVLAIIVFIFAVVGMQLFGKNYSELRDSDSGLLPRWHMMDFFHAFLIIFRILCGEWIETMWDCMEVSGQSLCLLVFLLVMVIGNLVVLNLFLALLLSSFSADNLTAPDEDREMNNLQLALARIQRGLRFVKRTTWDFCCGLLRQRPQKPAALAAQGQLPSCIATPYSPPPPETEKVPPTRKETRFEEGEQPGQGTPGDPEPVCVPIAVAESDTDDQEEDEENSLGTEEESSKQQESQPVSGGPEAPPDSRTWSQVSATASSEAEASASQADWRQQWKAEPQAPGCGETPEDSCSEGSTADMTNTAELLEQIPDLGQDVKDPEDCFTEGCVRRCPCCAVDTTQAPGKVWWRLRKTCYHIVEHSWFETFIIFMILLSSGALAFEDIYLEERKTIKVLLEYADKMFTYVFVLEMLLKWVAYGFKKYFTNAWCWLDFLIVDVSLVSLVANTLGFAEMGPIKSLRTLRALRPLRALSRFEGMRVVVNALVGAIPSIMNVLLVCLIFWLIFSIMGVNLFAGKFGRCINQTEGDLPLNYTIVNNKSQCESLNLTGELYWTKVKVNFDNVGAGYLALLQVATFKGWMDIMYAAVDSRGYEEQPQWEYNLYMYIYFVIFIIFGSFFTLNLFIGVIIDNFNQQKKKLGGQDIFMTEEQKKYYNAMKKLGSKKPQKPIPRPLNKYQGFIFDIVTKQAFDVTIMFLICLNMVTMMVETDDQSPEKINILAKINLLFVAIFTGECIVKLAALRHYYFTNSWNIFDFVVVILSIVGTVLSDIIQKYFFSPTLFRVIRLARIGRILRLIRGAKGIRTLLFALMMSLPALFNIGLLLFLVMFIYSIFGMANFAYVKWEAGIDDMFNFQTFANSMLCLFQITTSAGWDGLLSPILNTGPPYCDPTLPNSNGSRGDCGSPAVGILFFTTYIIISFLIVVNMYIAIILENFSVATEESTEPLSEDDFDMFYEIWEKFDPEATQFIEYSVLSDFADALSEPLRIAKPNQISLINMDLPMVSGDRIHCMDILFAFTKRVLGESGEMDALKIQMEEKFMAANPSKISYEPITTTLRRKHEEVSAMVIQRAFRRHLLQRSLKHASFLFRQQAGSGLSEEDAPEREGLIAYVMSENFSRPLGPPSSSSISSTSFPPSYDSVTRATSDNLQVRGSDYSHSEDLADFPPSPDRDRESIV
structure (smiles),measurement,setting,value
COc1cc(Cc2cnc(N)nc2N)c2c(c1OC)OC(C1CC1)C=C2 (racemic) [Iclaprim],AUC at 13 week,[1]; female,26600 ng·h/mL
same,AUC at 13 week,[1]; male,26900 ng·h/mL
same,"efficacy, non-inferiority (−10% margin) to linezolid",[2],did not meet the FDA criteria of non-inferiority to linezolid; also recorded: failed to show efficacy
same,IC50,[3],95 µM
same,concentration above which action potential duration was increased,[4],above 1 μM
same,adverse events related to QTc prolongation,[5],4 cases
same,Cmax,[6],854 ng/mL
same,post-infusion QTcF prolongation from baseline (any subject),[7],≤ 60 ms
same,AUC at 13 week,[8]; female,20400 ng·h/mL
same,AUC at 13 week,[8]; male,7260 ng·h/mL
same,non-inferiority (10% margin) compared to vancomycin,[9]; ETP,achieved the primary endpoint of non-inferiority; also recorded: non-inferior
same,non-inferiority (10% margin) compared to vancomycin,[9]; TOC,achieved NI
same,"Early Clinical Response (ECR), number of subjects",[9]; ETP (48 to 72 hours),241
same,"Early Clinical Response (ECR), percent of subjects",[9]; ETP (48 to 72 hours),80.9%
same,"Early Clinical Response (ECR), % Difference iclaprim vs vancomycin",[9]; ETP,−0.13%
same,"Clinical cure, number of subjects",[9]; TOC (7 to 14 days after study drug discontinuation),251
same,"Clinical cure, % Difference iclaprim vs vancomycin",[9]; TOC,−2.77%
same,"Clinical cure, percent of subjects",[9]; TOC,84.2%
same,MIC90,[10],0.12 µg/mL
same,QTc prolongations,[11]; 3.2 mg/kg infused over 30 minutes,> 60 ms
same,effect on QTc interval,"[11]; 1.6 and 3.2 mg/kg infused over 30 minutes, dose-dependent",prolonged the QTc interval
same,dose-related increase in QTc,[12],did not
same,IC50,[13],0.9 µM
same,AUC,"[14]; 75 mg, 75 mg/10% PG (20 min)",1660 ng·h/mL
same,Cmax,"[14]; 75 mg, 75 mg/10% PG (20 min)",1290 ng/mL
same,AUC,"[14]; 150 mg, 150 mg/10% PG (20 min)",3600 ng·h/mL
same,AUC,[14]; [16],3220 ng·h/mL
same,Cmax,"[14]; 150 mg, 150 mg/10% PG (20 min)",2350 ng/mL
same,Cmax,[14]; [16],1870 ng/mL
same,AUC,[15]; 0.25 mg/kg,598 ± 270 ng·h/mL
same,Cmax,[15]; 0.25 mg/kg,686 ± 279 ng/mL
same,AUC,[15]; 0.5 mg/kg,996 ng·h/mL
same,AUC,[15]; 1 mg/kg,1980 ng·h/mL
same,AUC,[15]; 2 mg/kg,4040 ng·h/mL
same,AUC,[15]; 4 mg/kg,6810 ng·h/mL
same,Cmax,[15]; 4 mg/kg,4020 ng/mL
